The record followed here is ChEMBL document CHEMBL1130072, “Probing the active sites of monoamine oxidase A and B with 1,4-disubstituted tetrahydropyridine substrates and inactivators” (J Med Chem, 1997).

For one data set, the target named is T1, Amine oxidase [flavin-containing] B (Homo sapiens, UniProt P27338).
T1 sequence (P27338 whole entry): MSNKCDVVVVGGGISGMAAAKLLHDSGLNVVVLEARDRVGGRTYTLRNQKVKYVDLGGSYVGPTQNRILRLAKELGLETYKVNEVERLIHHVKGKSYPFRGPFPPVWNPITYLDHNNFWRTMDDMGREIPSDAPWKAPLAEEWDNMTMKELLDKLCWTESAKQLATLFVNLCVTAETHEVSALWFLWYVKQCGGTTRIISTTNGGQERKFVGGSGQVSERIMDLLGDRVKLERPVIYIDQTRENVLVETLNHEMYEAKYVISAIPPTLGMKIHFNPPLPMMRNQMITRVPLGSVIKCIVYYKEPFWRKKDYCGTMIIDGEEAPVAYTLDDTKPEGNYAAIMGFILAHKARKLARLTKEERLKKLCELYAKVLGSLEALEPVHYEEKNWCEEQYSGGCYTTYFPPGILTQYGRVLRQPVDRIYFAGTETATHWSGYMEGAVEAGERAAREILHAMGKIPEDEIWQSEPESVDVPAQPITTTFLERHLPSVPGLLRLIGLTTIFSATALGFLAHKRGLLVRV
Nature of the data set: Vmax/Km values for MAO-B. More on the design: unit not given here.
Turning to `CN1CC=C(c2ccc3ccccc3c2)CC1`, the Ratio was 71.

As to `CN1CC=C(c2cccc(-c3ccccc3)c2)CC1`, the Ratio amounted to 157.

As for `CN1CC=C(c2ccccc2)CC1`, the Ratio is 523.

For `CN1CC=C(c2cccc3ccccc23)CC1`, the Ratio is recorded as 364.

With `CN1CC=C(c2ccccc2-c2ccccc2)CC1`, the Ratio was determined as 12.

The target of the next data set is T2, Amine oxidase [flavin-containing] A (Homo sapiens, UniProt P21397).
T2 sequence (P21397 whole entry): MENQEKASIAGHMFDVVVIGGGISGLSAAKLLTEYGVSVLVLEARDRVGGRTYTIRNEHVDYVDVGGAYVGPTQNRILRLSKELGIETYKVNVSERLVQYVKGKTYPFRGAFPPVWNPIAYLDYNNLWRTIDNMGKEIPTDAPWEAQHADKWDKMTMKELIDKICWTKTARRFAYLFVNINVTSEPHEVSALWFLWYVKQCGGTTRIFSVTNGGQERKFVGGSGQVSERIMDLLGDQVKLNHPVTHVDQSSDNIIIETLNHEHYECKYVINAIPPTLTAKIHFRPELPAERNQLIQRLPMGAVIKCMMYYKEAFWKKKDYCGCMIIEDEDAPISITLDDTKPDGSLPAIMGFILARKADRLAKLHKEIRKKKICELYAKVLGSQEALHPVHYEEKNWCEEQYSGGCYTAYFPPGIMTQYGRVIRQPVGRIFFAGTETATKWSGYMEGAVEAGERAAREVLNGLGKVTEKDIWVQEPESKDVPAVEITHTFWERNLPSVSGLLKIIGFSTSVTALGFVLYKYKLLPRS
The data set is described as follows: Tested for Km, the substrate concentration with gives half maximum velocity of the monoamine oxidase A catalyzed oxidation; NSD = no substrate properties detected.
On to `CN1CC=C(c2ccc(-c3ccccc3)cc2)CC1`, for which the Km result is reported as “No substrate detected”.

As to `CN1CC=C(c2cccc(-c3ccccc3)c2)CC1`, the Km entry is given as “No substrate detected”.

Another data set concerns the target T2, Amine oxidase [flavin-containing] A. The data set is described as follows: Vmax/Km values for MAO-A. More on the design: unit not given here.
As to `CN1CC=C(c2ccc3ccccc3c2)CC1`, the Ratio is recorded as 443.

As to `CN1CC=C(c2ccccc2)CC1`, the Ratio is listed as 143.

With `CN1CC=C(c2cccc3ccccc23)CC1`, the Ratio is 862.

As to `CN1CC=C(c2ccccc2-c2ccccc2)CC1`, the Ratio came out at 892.

The target is the same in the next data set. The data set is described as follows: Tested for maximum velocity of monoamine oxidase A catalyzed oxidation. More on the design: unit not given here.
In the case of `CN1CC=C(c2ccc3ccccc3c2)CC1`, the Vmax came to 204.

For `CN1CC=C(c2ccccc2)CC1`, the Vmax stood at 20.

For `CN1CC=C(c2cccc3ccccc23)CC1`, the Vmax is on record as 526.

With `CN1CC=C(c2ccccc2-c2ccccc2)CC1`, the Vmax came to 107.

In another data set the target is T3, Amine oxidase [flavin-containing] B (Bos taurus, UniProt P56560).
T3 sequence (P56560 whole entry): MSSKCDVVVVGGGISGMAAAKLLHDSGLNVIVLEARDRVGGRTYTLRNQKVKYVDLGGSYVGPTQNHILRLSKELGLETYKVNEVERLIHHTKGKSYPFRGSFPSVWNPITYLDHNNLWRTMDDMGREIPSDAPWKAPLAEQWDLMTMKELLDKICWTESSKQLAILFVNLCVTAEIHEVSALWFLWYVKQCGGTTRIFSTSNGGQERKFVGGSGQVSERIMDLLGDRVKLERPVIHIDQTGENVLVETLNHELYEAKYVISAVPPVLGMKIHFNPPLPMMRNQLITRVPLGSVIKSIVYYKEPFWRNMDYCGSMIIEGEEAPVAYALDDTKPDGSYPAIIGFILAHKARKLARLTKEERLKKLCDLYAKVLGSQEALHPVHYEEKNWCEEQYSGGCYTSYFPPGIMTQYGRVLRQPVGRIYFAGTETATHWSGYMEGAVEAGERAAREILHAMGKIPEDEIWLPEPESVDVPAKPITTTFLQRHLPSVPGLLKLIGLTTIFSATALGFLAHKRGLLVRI
Nature of the data set: Tested for Km, the substrate concentration with gives half maximum velocity of the monoamine oxidase B catalyzed oxidation; NSD = no substrate properties detected.
On to `CN1CC=C(c2ccc(-c3ccccc3)cc2)CC1`, for which the Km result is listed as “No substrate detected”.

For a further data set, the target named is T3, Amine oxidase [flavin-containing] B. Nature of the data set: Tested for inhibition- binding affinity against monoamine oxidase B catalyzed oxidation; NID = no inactivation properties detected.
`C1=C(c2ccccc2-c2ccccc2)CCN(C2CC2)C1`: the Ki result is recorded as “No inhibition”.

The target is the same in another data set. Nature of the data set: Tested for Kinetic data against the monoamine oxidase B catalyzed oxidation.
Turning to `COc1cccc(C2=CCN(C)CC2)c1`, the “Vmax / Km” value stood at 933 mM⁻¹ min⁻¹.

Regarding `CN1CC=C(c2c[nH]c3ccccc23)CC1.O=C(O)C(=O)O`, the “Vmax / Km” value amounted to 397 mM⁻¹ min⁻¹.

Turning to `CCc1ccccc1C1=CCN(C)CC1`, the “Vmax / Km” value came out at 295 mM⁻¹ min⁻¹.

For `CC(C)c1ccccc1C1=CCN(C)CC1`, the “Vmax / Km” value was 51 mM⁻¹ min⁻¹.

With `Cc1ccccc1C1=CCN(C)CC1`, the “Vmax / Km” value worked out at 1288 mM⁻¹ min⁻¹.

Take `Cc1cccc(C2=CCN(C)CC2)c1`: the “Vmax / Km” value turned out to be 646 mM⁻¹ min⁻¹.

The target in another data set is T4, Monoamine oxidase (Homo sapiens, UniProt P21397+P27338).
T4 sequence (P21397 whole entry): T2 sequence (P21397 whole entry)
T4 sequence (P27338 whole entry): T1 sequence (P27338 whole entry)
Nature of the data set: Selectivity Coefficient measured as ratio of Vmax/Km value of MAO-B to that of MAO-A. Format: protein assay.
For `CN1CC=C(c2ccccc2)CC1`, the Selectivity coefficient is given as 3.65.

Turning to `CCc1ccccc1C1=CCN(C)CC1`, the Selectivity coefficient is given as 0.43.

As to `CC(C)c1ccccc1C1=CCN(C)CC1`, the Selectivity coefficient is 0.05.

On to `Cc1ccccc1C1=CCN(C)CC1`, for which the Selectivity coefficient was 2.19.

With `Cc1cccc(C2=CCN(C)CC2)c1`, the Selectivity coefficient is listed as 8.5.

Another data set addresses T2, Amine oxidase [flavin-containing] A. The data set is described as follows: Tested for Kinetic data against the monoamine oxidase A catalyzed oxidation;NSD = No substrate properties detected.
As for `COc1cccc(C2=CCN(C)CC2)c1`, the “Vmax / Km” value was “No substrate detected”.

The next data set shares this target. The data set is described as follows: Tested for inhibition- binding affinity against monoamine oxidase A catalyzed oxidation; NID = no inactivation properties detected.
`C1=C(c2ccc(-c3ccccc3)cc2)CCN(C2CC2)C1`: the Ki entry was “No inhibition”.

The next data set has the same target. Nature of the data set: Tested for Kinetic data against the monoamine oxidase A catalyzed oxidation.
With `CN1CC=C(c2cccc(Oc3ccccc3)c2)CC1`, the “Vmax / Km” value was 5568 mM⁻¹ min⁻¹.

Turning to `CCc1ccccc1C1=CCN(C)CC1`, the “Vmax / Km” value worked out at 692 mM⁻¹ min⁻¹.

Consider `CC(C)c1ccccc1C1=CCN(C)CC1`, for which the “Vmax / Km” value came out at 1122 mM⁻¹ min⁻¹.

On to `Cc1ccccc1C1=CCN(C)CC1`, for which the “Vmax / Km” value was 588 mM⁻¹ min⁻¹.

As to `Cc1cccc(C2=CCN(C)CC2)c1`, the “Vmax / Km” value stood at 76 mM⁻¹ min⁻¹.

The next data set concerns the target T3, Amine oxidase [flavin-containing] B. The data set is described as follows: Tested for maximum velocity of monoamine oxidase B catalyzed oxidation. More on the design: unit not given here.
Turning to `CN1CC=C(c2ccc3ccccc3c2)CC1`, the Vmax is 42.

Consider `CN1CC=C(c2cccc(-c3ccccc3)c2)CC1`, for which the Vmax amounted to 153.

For the molecule `CN1CC=C(c2c[nH]c3ccccc23)CC1.O=C(O)C(=O)O`, the Vmax was 358.

Take `CN1CC=C(c2ccccc2)CC1`: the Vmax was determined as 204.

For the molecule `CN1CC=C(c2cccc3ccccc23)CC1`, the Vmax is reported as 51.

As for `CN1CC=C(c2ccccc2-c2ccccc2)CC1`, the Vmax turned out to be 20.
